From paper PMC6407917, “Identification of GSK3186899/DDD853651 as a Preclinical Development Candidate for the Treatment of Visceral Leishmaniasis” (Journal of Medicinal Chemistry, 2018)

Legend:
Assay in all cases: biochemical
Set-up in all cases: species or system HEK293/K-562/placenta mixed human extract; Kinobeads chemoproteomic competition binding, quantified by TMT LC-MS/MS, dose response up to 20 uM
CHUK = CHUK (Homo sapiens, UniProt O15111)
RIOK2 = RIOK2 (Homo sapiens, UniProt Q9BVS4)
ITK = ITK (Homo sapiens, UniProt Q08881)
ITK, sequence (Q08881 whole entry): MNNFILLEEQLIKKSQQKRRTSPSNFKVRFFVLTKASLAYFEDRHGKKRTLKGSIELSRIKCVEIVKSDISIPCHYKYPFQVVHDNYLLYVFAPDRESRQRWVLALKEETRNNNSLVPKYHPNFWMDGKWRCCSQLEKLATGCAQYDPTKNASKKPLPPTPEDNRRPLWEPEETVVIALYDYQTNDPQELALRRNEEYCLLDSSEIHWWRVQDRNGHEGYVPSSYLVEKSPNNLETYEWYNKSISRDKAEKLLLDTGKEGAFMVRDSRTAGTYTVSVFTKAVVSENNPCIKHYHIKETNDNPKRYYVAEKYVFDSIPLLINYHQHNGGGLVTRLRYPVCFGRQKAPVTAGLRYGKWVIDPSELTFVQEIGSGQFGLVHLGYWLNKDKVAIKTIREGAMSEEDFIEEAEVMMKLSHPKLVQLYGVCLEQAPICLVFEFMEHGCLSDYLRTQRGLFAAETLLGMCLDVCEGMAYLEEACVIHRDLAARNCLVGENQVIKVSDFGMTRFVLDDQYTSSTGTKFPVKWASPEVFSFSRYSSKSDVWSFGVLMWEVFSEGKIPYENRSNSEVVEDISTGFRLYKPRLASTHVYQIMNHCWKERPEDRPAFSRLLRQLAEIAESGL

CHEK1 = CHEK1 (Homo sapiens, UniProt O14757)
PIK3R4 = PIK3R4 (Homo sapiens, UniProt Q99570)
MAP3K7 = MAP3K7 (Homo sapiens, UniProt O43318)
PRKX = PRKX (Homo sapiens, UniProt P51817)
EPHB3 = EPHB3 (Homo sapiens, UniProt P54753)
TYRO3 = TYRO3 (Homo sapiens, UniProt Q06418)
TYRO3, sequence (Q06418 whole entry): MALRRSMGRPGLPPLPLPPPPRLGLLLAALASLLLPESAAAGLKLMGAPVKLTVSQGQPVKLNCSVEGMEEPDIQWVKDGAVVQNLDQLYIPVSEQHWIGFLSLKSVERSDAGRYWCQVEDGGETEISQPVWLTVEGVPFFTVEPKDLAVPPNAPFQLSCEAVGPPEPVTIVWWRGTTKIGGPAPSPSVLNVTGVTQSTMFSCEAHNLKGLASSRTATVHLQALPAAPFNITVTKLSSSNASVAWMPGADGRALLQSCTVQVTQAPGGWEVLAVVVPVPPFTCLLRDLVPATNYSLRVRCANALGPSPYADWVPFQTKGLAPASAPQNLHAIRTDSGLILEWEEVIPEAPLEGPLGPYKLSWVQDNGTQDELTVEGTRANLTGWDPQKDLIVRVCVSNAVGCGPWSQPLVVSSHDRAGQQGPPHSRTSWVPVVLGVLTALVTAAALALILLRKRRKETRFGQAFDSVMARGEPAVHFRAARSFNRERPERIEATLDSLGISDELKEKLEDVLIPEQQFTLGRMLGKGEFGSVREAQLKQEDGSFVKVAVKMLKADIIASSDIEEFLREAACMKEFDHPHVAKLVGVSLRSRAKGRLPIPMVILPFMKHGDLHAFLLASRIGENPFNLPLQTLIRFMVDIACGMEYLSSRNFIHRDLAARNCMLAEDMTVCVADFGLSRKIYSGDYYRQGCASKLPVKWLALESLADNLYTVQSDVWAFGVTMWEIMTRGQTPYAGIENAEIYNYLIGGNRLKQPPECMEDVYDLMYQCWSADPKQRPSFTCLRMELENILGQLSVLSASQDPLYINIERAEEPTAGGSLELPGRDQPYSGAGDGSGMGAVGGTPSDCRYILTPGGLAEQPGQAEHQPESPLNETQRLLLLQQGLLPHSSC

FGFR1 = FGFR1 (Homo sapiens, UniProt P11362)
MAP3K11 = MAP3K11 (Homo sapiens, UniProt Q16584)
PRKAA2 = PRKAA2 (Homo sapiens, UniProt P54646)
BUB1 = BUB1 (Homo sapiens, UniProt O43683)
BUB1, sequence (O43683 whole entry): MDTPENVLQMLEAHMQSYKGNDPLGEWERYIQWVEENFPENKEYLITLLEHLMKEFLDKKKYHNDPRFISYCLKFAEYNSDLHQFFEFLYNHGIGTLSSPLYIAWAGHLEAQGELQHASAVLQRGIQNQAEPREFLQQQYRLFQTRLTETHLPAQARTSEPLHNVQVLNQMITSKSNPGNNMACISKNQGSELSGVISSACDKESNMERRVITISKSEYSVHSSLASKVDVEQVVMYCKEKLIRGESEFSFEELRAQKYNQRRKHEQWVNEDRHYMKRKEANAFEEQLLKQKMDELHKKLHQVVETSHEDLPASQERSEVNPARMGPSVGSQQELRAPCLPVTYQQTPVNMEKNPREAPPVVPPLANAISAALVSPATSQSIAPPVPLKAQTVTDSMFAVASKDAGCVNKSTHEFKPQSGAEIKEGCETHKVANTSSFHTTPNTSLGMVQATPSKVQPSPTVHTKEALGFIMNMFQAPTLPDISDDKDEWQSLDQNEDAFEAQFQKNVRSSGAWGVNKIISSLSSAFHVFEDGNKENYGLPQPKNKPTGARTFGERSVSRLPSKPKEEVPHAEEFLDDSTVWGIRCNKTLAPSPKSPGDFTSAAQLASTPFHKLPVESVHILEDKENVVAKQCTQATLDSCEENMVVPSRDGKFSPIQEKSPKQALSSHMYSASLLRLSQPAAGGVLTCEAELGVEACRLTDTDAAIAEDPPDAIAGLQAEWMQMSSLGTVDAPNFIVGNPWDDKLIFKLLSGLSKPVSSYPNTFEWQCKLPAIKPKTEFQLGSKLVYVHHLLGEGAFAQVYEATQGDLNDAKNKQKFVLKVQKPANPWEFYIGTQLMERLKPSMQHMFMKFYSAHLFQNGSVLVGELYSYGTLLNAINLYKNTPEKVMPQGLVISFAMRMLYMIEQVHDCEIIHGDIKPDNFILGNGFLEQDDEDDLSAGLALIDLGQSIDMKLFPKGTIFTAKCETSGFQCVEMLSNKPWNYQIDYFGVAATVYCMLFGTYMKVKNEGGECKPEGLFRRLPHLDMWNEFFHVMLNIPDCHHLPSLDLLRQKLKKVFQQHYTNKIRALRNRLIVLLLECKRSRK

NEK9 = NEK9 (Homo sapiens, UniProt Q8TD19)
STK4 = STK4 (Homo sapiens, UniProt Q13043)
TBK1 = TBK1 (Homo sapiens, UniProt Q9UHD2)
TBK1, sequence (Q9UHD2 whole entry): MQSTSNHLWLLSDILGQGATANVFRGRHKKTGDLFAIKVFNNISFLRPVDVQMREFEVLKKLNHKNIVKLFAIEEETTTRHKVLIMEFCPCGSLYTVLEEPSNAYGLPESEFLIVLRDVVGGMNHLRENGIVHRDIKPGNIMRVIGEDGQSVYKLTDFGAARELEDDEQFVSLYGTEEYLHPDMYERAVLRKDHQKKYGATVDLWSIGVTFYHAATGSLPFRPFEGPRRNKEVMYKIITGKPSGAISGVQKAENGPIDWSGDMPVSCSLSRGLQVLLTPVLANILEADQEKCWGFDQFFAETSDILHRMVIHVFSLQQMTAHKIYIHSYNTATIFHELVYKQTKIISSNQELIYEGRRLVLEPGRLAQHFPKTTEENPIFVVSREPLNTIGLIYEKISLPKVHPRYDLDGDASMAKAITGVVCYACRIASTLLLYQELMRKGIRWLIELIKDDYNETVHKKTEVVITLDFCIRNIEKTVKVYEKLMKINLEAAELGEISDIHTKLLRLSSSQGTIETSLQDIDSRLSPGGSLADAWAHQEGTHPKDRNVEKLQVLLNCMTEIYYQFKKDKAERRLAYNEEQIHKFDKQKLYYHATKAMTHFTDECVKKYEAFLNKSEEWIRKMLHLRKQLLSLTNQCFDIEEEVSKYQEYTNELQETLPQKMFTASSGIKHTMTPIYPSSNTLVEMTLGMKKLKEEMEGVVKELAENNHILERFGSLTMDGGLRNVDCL

FN3K = FN3K (Homo sapiens, UniProt Q9H479)
FN3K, sequence (Q9H479 whole entry): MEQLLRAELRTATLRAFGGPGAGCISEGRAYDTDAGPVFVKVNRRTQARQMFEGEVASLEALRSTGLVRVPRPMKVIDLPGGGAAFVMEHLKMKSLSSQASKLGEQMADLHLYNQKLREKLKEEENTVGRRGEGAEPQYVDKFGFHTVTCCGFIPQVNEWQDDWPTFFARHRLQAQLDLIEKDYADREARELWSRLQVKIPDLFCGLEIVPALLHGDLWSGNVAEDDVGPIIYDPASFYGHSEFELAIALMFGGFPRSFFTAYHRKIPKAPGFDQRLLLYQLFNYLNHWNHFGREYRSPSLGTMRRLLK

ADCK1 = ADCK1 (Homo sapiens, UniProt Q86TW2)
ADCK1, sequence (Q86TW2 whole entry): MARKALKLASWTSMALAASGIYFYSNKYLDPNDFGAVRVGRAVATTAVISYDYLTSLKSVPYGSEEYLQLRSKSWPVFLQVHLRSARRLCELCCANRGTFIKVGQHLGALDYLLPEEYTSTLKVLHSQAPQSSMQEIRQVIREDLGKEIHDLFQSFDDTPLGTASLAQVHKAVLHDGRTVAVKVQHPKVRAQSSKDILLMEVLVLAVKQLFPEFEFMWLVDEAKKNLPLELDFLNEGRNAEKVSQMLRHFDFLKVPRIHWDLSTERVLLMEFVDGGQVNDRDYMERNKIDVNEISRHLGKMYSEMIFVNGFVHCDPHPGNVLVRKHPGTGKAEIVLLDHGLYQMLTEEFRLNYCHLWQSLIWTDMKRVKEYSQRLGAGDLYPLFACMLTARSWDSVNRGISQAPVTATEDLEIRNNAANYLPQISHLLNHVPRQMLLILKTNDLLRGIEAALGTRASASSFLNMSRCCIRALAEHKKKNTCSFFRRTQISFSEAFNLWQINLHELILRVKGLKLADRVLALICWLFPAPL

JAK2 = JAK2 (Homo sapiens, UniProt O60674)
PIP4K2B = PIP4K2B (Homo sapiens, UniProt P78356)
MASTL = MASTL (Homo sapiens, UniProt Q96GX5)

CHUK, sequence (O15111 whole entry): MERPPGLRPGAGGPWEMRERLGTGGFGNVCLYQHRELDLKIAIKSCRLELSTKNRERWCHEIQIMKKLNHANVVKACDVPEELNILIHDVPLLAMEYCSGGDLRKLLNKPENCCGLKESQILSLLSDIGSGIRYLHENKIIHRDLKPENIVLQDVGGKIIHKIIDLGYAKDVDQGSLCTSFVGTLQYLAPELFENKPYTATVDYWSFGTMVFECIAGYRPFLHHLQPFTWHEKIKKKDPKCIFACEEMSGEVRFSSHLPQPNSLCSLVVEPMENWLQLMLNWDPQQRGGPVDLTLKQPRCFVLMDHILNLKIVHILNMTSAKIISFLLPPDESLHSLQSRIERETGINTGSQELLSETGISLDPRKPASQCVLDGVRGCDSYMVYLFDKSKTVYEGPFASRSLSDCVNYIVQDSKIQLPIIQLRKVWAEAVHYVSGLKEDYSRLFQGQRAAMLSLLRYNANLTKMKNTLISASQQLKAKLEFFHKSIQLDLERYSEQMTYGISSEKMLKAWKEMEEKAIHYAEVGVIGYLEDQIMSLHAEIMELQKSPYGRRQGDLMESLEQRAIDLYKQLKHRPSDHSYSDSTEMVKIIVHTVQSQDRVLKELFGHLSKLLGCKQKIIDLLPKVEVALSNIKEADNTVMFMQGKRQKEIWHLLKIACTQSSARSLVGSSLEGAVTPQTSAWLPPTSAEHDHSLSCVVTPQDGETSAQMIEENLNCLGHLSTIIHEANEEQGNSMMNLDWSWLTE

In the case of COc1ccccc1-c1n[nH]c2nc(N[C@H]3CC[C@H](NS(=O)(=O)CCC(F)(F)F)CC3)nc(OC)c12 [compound 31, 3,3,3-Trifluoro-N-(trans-4-((4-methoxy-3-(2-methoxyphenyl)-1H-pyrazolo[3,4-d]pyrimidin-6-yl)amino)cyclohexyl)propane-1-sulfonamide], the IC50 (CHUK) is reported as at least 20 µM, the IC50 (RIOK2) is reported as at least 20 µM and the IC50 (ITK) is reported as at least 20 µM. For the same molecule, the IC50 (CHEK1) was at least 20 µM, the IC50 (PIK3R4) was at least 20 µM and the IC50 (MAP3K7) was at least 20 µM. It also gave an IC50 (PRKX) of at least 20 µM, an IC50 (EPHB3) of at least 20 µM and an IC50 (TYRO3) of at least 20 µM. For the same molecule, the IC50 (FGFR1) was at least 20 µM, the IC50 (MAP3K11) was at least 20 µM and the IC50 (PRKAA2) was at least 20 µM. The IC50 (BUB1) was at least 20 µM, the IC50 (NEK9) was at least 20 µM and the IC50 (STK4) was at least 20 µM. It also gave an IC50 (TBK1) of at least 20 µM, an IC50 (FN3K) of at least 20 µM and an IC50 (ADCK1) of at least 20 µM. The IC50 (JAK2) was at least 20 µM, the IC50 (PIP4K2B) was 9.4 µM and the IC50 (MASTL) was at least 20 µM.
